Converted amounts (≈) assume the structure as drawn. Counter-ions that a name gives are not always drawn. Like-named read-outs stand apart in the source and are kept apart here.
Key:
[1] = tested on: Escherichia coli Juhl A15119; test: MIC, serial two-fold agar dilution, aerobic bacteria; type: cell-based; conditions: JUHLA15119, Nutrient agar (Eiken), read-out: MIC
[2] = tested on: Klebsiella pneumoniae A9678; test: as above; type: cell-based; conditions: Nutrient agar (Eiken), read-out: MIC
[3] = tested on: Serratia marcescens A20019; test: as above; type: cell-based; conditions: Nutrient agar (Eiken), read-out: MIC
[4] = tested on: Pseudomonas aeruginosa A9843; test: as above; type: cell-based; conditions: test medium not given
[5] = tested on: Proteus mirabilis A9554; test: as above; type: cell-based; conditions: Nutrient agar (Eiken)
[6] = tested on: Proteus morganii A9553; test: as above; type: cell-based; conditions: Morganella morganii, Nutrient agar (Eiken)
[7] = tested on: Staphylococcus aureus 209P; test: as above; type: cell-based; conditions: Nutrient agar (Eiken)
[8] = tested on: Staphylococcus aereus Smith; test: as above; type: cell-based
[9] = tested on: Staphylococcus aureus #52-34; test: as above; type: cell-based
[10] = tested on: Sarcina lutea PCI-1001; test: as above; type: cell-based; conditions: Micrococcus luteus, PCI1001
[11] = tested on: Micrococcus flavus; test: as above; type: cell-based; conditions: Nutrient agar (Eiken), read-out: MIC
[12] = tested on: Bacillus cereus ATCC 10702 A; test: as above; type: cell-based; conditions: ATCC10702, Nutrient agar (Eiken), read-out: MIC
[13] = tested on: Bacillus subtilis PCI-219; test: as above; type: cell-based; conditions: PCI219, Nutrient agar (Eiken), read-out: MIC
[14] = tested on: Streptococcus pyogenes A9604; test: as above; type: cell-based; conditions: GC medium (Eiken)
[15] = tested on: Streptococcus pyogenes A20201; test: as above; type: cell-based; conditions: GC medium (Eiken)
[16] = tested on: Streptococcus viridans A21354; test: as above; type: cell-based; conditions: GC medium (Eiken)
[17] = tested on: Diplococcus pneumoniae A9585; test: as above; type: cell-based; conditions: Streptococcus pneumoniae, GC medium (Eiken)
[18] = tested on: Neisseria meningitidis A20049; test: as above; type: cell-based; conditions: GC medium (Eiken), read-out: MIC
[19] = tested on: Neisseria meningitidis A21496; test: as above; type: cell-based; conditions: GC medium (Eiken)
[20] = tested on: Neisseria gonorrhoeae A15112; test: as above; type: cell-based; conditions: GC medium (Eiken)
[21] = tested on: Neisseria gonorrhoeae A20154; test: as above; type: cell-based; conditions: GC medium (Eiken)
[22] = tested on: Hemophilus influenzae A9832; test: as above; type: cell-based; conditions: Haemophilus influenzae, GC medium (Eiken)
[23] = tested on: Hemophilus influenzae A20188; test: as above; type: cell-based; conditions: Haemophilus influenzae, GC medium (Eiken)
[24] = tested on: Peptostreptococcus anaerobius B43; type: cell-based; conditions: GAM agar medium (Nissui)
[25] = tested on: B. fragilis A20928-1; test: Inoculum size effect on MIC, GAM agar; type: cell-based; conditions: Bacteroides fragilis, A209281; inoculum size 1.2 × 10^6 cell/ml
[26] = tested on: B. fragilis A20928-1; test: Inoculum size effect on MIC, GAM broth; type: cell-based; conditions: Bacteroides fragilis
[27] = tested on: C. perfringens A9635; test: microbe, parasite or virus in culture; type: cell-based; conditions: Clostridium perfringens, A9635, read-out: MIC in GAM broth, inoculum size […] 10^6 cell/ml
[28] = tested on: B. fragilis A20928-1; test: Bactericidal activity (MIC & MBC); type: cell-based; conditions: Bacteroides fragilis, A209281, inoculum size 2.8 × 10^6 cell/ml
[29] = tested on: C. perfringens A9635; test: microbe, parasite or virus in culture; type: cell-based; conditions: Clostridium perfringens, A9635, 18 h
[30] = tested on: S. pyogenes A20201; test: Bactericidal activity (MIC & MBC); type: cell-based; conditions: Streptococcus pyogenes, A20201, 18 h
[31] = tested on: C. perfringens A9635; test: animal or person; type: in vivo, mice; conditions: Clostridium perfringens, A9635, in Mus musculus, 120 h, read-out: PD50
[32] = tested on: S. pyogenes A20201; test: Systemic infection with S. pyogenes in mice; type: in vivo; conditions: Streptococcus pyogenes, A20201, 120 h, just before challenge, determined after 5 days, read-out: PD50
[33] = Solubility; type: physicochemical
[34] = Stability in solution; type: physicochemical
[35] = pKa' by titration in aqueous ethanol; type: physicochemical; conditions: 46% aqueous ethanol
[36] = tested on: aerobic organisms; test: Antibacterial activity against aerobic bacteria (in words); type: cell-based; conditions: Bacillus species, streptococci, Neisseria meningtidis, N. gonorrhoeae, Hemophilus influenzae
[37] = tested on: aerobic and anaerobic bacteria; test: Antibacterial activity and spectrum (in words); type: cell-based
[38] = tested on: two anaerobic organisms (B. fragilis and C. perfringens); type: cell-based; conditions: broth dilution method
[39] = tested on: two anaerobic and one aerobic organisms; test: Bactericidal potential (in words); type: cell-based
[40] = tested on: C. perfringens or S. pyrogenes; type: in vivo, mice; conditions: subcutaneous and oral
[41] = in vivo
[42] = Acute toxicity
[43] = tested on: Escherichia coli K-12 A9632; test: MIC, serial two-fold agar dilution, aerobic bacteria; conditions: K12A9632
[44] = tested on: B. fragilis A20926; test: Localized infection with B. fragilis in mice; type: in vivo; conditions: for mean score: control 4.2; for sum of score: control 21; for infectivity level: control 100%

COC(=O)C1C(C)OC2(C)CC(=O)C3OC12OC(C(C)/C=C(C)/C=C/C(=O)C1=C(O)CNC1=O)C3C (stereo not shown) [Bu-2313B]
MIC [1]: > 100 µg/mL | MIC [2]: > 100 µg/mL | MIC [3]: > 100 µg/mL | MIC [4]: > 100 µg/mL | MIC [5]: > 100 µg/mL | MIC [6]: > 100 µg/mL | MIC [7]: 25 µg/mL (≈ 49.6 µM) | MIC [8]: 12.5 µg/mL (≈ 24.8 µM) | MIC [9]: 12.5 µg/mL (≈ 24.8 µM) | MIC [10]: 12.5 µg/mL (≈ 24.8 µM) | MIC [11]: 25 µg/mL (≈ 49.6 µM) | MIC [12]: 0.8 µg/mL (≈ 1.59 µM) | MIC [13]: 1.6 µg/mL (≈ 3.18 µM) | MIC [14]: 0.4 µg/mL (≈ 0.794 µM) | MIC [15]: 0.4 µg/mL (≈ 0.794 µM) | MIC [16]: 0.4 µg/mL (≈ 0.794 µM) | MIC [17]: 0.4 µg/mL (≈ 0.794 µM) | MIC [18]: 0.8 µg/mL (≈ 1.59 µM) | MIC [19]: 1.6 µg/mL (≈ 3.18 µM) | MIC [20]: 0.8 µg/mL (≈ 1.59 µM) | MIC [21]: 0.8 µg/mL (≈ 1.59 µM) | MIC [22]: 0.4 µg/mL (≈ 0.794 µM) | MIC [23]: 0.8 µg/mL (≈ 1.59 µM) | MIC [24]: 0.4 µg/mL (≈ 0.794 µM) | MIC [25]: 0.05 µg/mL (≈ 0.0993 µM) | MIC ([26]; A209281, inoculum size […] 10^7 cell/ml, read-out: MIC in GAM broth): 0.4 µg/mL (≈ 0.794 µM) | MIC ([26]; A209281, read-out: MIC in GAM broth, inoculum size […] 10^6 cell/ml): 0.013 µg/mL (≈ 0.0258 µM) | MIC [27]: 25 µg/mL (≈ 49.6 µM) | MIC ([28]; broth): 0.006 µg/mL (≈ 0.0119 µM) | MBC ([28]; growth of less than 100 colonies per plate, 18 hours at 37° C.): > 0.8 µg/mL | MBC [29]: 12.5 µg/mL (≈ 24.8 µM) | MBC [30]: 12.5 µg/mL (≈ 24.8 µM) | ED50 ([31]; po): 30 mg/kg | ED50 ([31]; sc): 6.25 mg/kg | ED50 ([32]; po, NA: no activity): 25 mg/kg | ED50 ([32]; sc): 9 mg/kg | solubility ([33]; hexane and alkaline water): slightly soluble | solubility ([33]; most organic solvents such as lower alcohols, ethyl acetate, chloroform and benzene): readily soluble | solubility ([33]; water): practically insoluble | stability ([34]; acidic solution): stable | stability ([34]; alkaline solution, N/10 NaOH, room temperature, overnight): inactivated | pKa [35]: 4.9 | susceptibility of aerobic strains [36]: susceptible | antibacterial activity [37]: exhibit antibacterial activity against a variety of anaerobic bacteria and some aerobic bacteria | comparative activity and antibacterial spectrum ([37]; in vitro): very similar to those of tirandamycin | influence of inoculum size on MIC [38]: greatly affected by inoculum size | antibacterial action [39]: bacteriostatic rather than bactericidal | protection against systemic infections [40]: fairly good protection | LD50 ([41]; sc, LD50, sc): 225 mg/kg | LD50 ([42]; ip, listed as Bu-2313B (free acid)): 115 mg/kg | comparative acute toxicity ([42]; sc, ip and oral LD50): significantly lower toxicity than Bu-2313A | MIC [43]: > 100 µg/mL

COC(=O)C1C(C)OC2(C)CC(=O)C3OC12OC(C(C)/C=C(C)/C=C/C(=O)C1=C(O)CNC1=O)C3C (stereo not shown) [Bu-2313B (Na salt)]
mean score ([44]; oral, 6.3 × 5 mg/kg): 3.4 | sum of score ([44]; oral, 6.3 × 5 mg/kg): 17 | infectivity level ([44]; oral, 6.3 × 5 mg/kg): 81.0% | mean score ([44]; oral, 25 × 5 mg/kg): 3.0 | sum of score ([44]; oral, 25 × 5 mg/kg): 15 | infectivity level ([44]; oral, 25 × 5 mg/kg): 71.4% | mean score ([44]; oral, 100 × 5 mg/kg): 2.4 | sum of score ([44]; oral, 100 × 5 mg/kg): 12 | infectivity level ([44]; oral, 100 × 5 mg/kg): 57.1% | mean score ([44]; oral, […] 5 mg/kg): 4.0 | sum of score ([44]; oral, […] 5 mg/kg): 20 | infectivity level ([44]; oral, […] 5 mg/kg): 95.2% | mean score ([44]; subcutaneous, 0.8 × 5 mg/kg): 4.0 | sum of score ([44]; subcutaneous, 0.8 × 5 mg/kg): 20 | infectivity level ([44]; subcutaneous, 0.8 × 5 mg/kg): 95.2% | mean score ([44]; subcutaneous, 3.1 × 5 mg/kg): 3.4 | sum of score ([44]; subcutaneous, 3.1 × 5 mg/kg): 17 | infectivity level ([44]; subcutaneous, 3.1 × 5 mg/kg): 81.0% | mean score ([44]; subcutaneous, 50 × 5 mg/kg): 2.2 | sum of score ([44]; subcutaneous, 50 × 5 mg/kg): 11 | infectivity level ([44]; subcutaneous, 50 × 5 mg/kg): 52.4% | mean score ([44]; subcutaneous, […] 5 mg/kg): 2.8 | sum of score ([44]; subcutaneous, […] 5 mg/kg): 14 | infectivity level ([44]; subcutaneous, […] 5 mg/kg): 66.7% | LD50 ([41]; po, LD50, po): 280 mg/kg | LD50 ([42]; ip): 55 mg/kg | LD50 ([42]; sc): 200 mg/kg

— patent publication US4169096A, “Antibiotic compounds” (priority 1977, dated 1979)
